Patent US9744122B2, “Topical formulation for pain relief” (priority 2013, dated 2017)

Assays:
[1] = testing of topical pain relief; type: in vivo
Source text: A new route of administration for mannitol for the specific indication of pain is disclosed. The topical composition allows for transdermal delivery of mannitol. […] The ingredients, including mannitol, are typically classified as natural health products.
(§1) Therefore, an improved topical composition includes from 0.25% up to 20.0% of menthol, by weight.

[2] = absorption of mannitol through skin; settings: when menthol is included in the composition
Source text: as §1

TRPV1 receptor = TRPV1 receptor (Homo sapiens, UniProt Q8NER1); test: inventors' own studies on mechanism of topical pain relief; settings: distinct from osmotic effects
Source text: The TRPV1 receptor is present on sensory nerves in the skin and is implicated in neurogenic inflammation, acute pain and chronic pain.

TRPV1 receptor, sequence (Q8NER1 whole entry): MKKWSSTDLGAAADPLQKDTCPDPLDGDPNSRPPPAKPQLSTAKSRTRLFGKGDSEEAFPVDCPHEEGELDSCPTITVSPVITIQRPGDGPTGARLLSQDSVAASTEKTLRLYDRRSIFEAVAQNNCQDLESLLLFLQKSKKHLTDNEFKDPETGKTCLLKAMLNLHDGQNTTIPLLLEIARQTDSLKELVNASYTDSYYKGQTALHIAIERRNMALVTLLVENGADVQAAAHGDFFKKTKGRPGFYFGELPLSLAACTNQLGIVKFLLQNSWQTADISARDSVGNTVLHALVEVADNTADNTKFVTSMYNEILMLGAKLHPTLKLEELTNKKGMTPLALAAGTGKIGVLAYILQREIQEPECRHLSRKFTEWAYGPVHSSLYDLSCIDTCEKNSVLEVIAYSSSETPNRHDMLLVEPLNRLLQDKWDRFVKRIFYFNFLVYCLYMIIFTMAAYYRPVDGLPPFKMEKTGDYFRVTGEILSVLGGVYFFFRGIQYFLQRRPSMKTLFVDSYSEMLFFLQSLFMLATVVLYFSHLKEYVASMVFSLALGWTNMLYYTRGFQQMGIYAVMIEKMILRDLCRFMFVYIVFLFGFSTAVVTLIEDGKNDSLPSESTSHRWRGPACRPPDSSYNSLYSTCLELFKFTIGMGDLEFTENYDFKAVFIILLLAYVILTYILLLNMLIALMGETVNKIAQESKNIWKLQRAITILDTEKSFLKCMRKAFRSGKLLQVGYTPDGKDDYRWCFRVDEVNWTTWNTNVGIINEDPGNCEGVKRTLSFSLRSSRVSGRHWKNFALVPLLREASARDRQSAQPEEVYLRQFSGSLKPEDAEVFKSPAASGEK

absorption through skin [2] | effect on TRPV1 receptor (TRPV1 receptor) | Compound | effectiveness of menthol content in the topical composition ([1]; 1.25% menthol by weight) | pain relief ([1]; when menthol is included in the composition)
 |  | CC1CCC(C(C)C)C(O)C1 (stereo not shown) [menthol] | effective | 
much more effectively absorbed | down-regulation | OC[C@@H](O)[C@@H](O)[C@H](O)[C@H](O)CO [mannitol] |  | improved pain relief
